Experimental data published in patent EP0986401B1, “P-SELECTIN TRANSLOCATION TO VASCULAR EPITHELIAL LUMEN BY IONIZING RADIATION” (ARCH DEVELOPMENT CORPORATION, priority 1997, dated 1998).
Entries after “also recorded” stand apart in the source; their conditions may differ. Where a name gives a salt, the structure may show the parent alone. Read-outs that look alike come from different tables or passages of the source. Starred links: 1 amine or outer side, 2 acyl side, 3 side chain; linkers in the order of their positions; H or OH if unused. Positions of bridges follow the written chain, without caps; N, C: chain ends. Non-standard residues stand in square brackets, D forms with d. Residues, ends and D or L forms follow the SMILES beside them. Chains are numbered I, II in the order given. Actinocin(9to1) = Cc1c2oc3c(C)ccc(C(=O)[*:1])c3nc-2c(C(=O)[*:2])c(N)c1=O; NMeV = CN[C@H](C(=O)O)C(C)C; Nle = CCCC[C@H](N)C(=O)O; Sar = CNCC(=O)O

Legend:
selectin = conditions: cited from earlier work; for block selectin binding to sLe^x: in vitro
ICAM-1 [1] = test: X-ray induction of ICAM-1 expression with enzyme inhibitors; format: cell-based, human; conditions: inhibitor added prior to irradiation
From the text: (§1) The initial step in discerning the potential role of various signal transduction pathways is to add enzyme inhibitors prior to x-radiation. Exocytosis of Weibel-Palade bodies is an active process requiring the translocation of cytoplasmic granules. Previous studies have shown that intracellular signal transduction required for Weibel Palade body translocation involves influx of calcium and protein kinase C activation (calcium, PKC). To determine whether these signaling pathways participate in radiation-mediated Weibel-Palade body exocytosis, the inventors added the intracellular calcium chelator BAPTA and the protein kinase C inhibitor, calphostin, to HUVEC cells prior to irradiation. Cells were then treated with 10 Gy and immunofluorescence was used to localize P-selectin. […] Conversely, the tyrosin kinase inhibitor, herbimycin A, had no effect on Weibel-Palade exocytosis. To determine whether calcium chelation and protein kinase inhibition prevent all molecular responses to ionizing radiation, the inventors' added BAPTA and calphostin prior to radiation-induction of ICAM-1 expression. BAPTA and calphostin had no effect on x-ray induction of ICAM-1. However, herbimycin A and the NFkB inhibitor ALLN attenuated x-ray induction of ICAM-1.

P-selectin [2] = test: P-selectin translocation (Weibel-Palade body exocytosis) in irradiated HUVEC with enzyme inhibitors, immunofluorescence; format: cell-based, human; conditions: inhibitor added prior to irradiation, 10 Gy
From the text: as §1

von Willebrand Factor = conditions: Vischer et al., 1995; cited from earlier work
HL60 cells = test: HL60 leukocyte adhesion to irradiated HUVECs; format: cell-based, human; conditions: 1 mM each; added 4 h after 10 Gy and 30 min prior to HL60 cells
Procedure: Human leukemia cell line HL60 has been used to quantify leukocyte adhesion to endothelial cells (Jones et al., 1995). HL60 cells were added to human umbilical vein in endothelial cells (HUVECs) after exposure to 10 Gy or cells treated with otherwise identical conditions without irradiation. Cultures were washed and cells were counted using a hemocytometer. […] Each agent blocked the adherence of HL60 cells to irradiated HUVECs.

[3] = rats, orally; Akao et al. (1994); cited from earlier work
[4] = Narasinga Rao et al. (1994); cited from earlier work
E-selectin [5] = conditions: Hallahan et al., 1995, 1996; cited from earlier work
ICAM-1 [6] = conditions: Hallahan et al., 1995, 1996; cited from earlier work
E-selectin [7] = biological target: T1, E-selectin (Homo sapiens, UniProt P16581); conditions: Nelson et al. (1993); cited from earlier work
T1 sequence (P16581 22-610): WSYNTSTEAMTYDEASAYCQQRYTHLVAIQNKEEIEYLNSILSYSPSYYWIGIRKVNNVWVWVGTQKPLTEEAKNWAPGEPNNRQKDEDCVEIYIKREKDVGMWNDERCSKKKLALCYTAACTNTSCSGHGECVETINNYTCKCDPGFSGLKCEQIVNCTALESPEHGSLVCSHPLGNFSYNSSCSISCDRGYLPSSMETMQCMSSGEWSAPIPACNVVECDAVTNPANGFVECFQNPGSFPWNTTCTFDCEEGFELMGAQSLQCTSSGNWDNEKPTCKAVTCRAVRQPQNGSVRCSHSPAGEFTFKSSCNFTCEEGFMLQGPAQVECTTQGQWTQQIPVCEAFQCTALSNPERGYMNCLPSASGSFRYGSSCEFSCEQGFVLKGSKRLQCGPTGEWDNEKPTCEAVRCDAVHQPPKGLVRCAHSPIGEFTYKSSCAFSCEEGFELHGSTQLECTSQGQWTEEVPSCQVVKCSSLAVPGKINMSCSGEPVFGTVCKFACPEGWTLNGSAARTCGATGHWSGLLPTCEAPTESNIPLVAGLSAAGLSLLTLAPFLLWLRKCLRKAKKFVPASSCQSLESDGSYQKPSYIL

vWF = conditions: disruption of microtubules; cited from earlier work
P-selectin [8] = test: P-selectin translocation in irradiated HUVEC with microtubule or actin agents, confocal immunofluorescence; format: cell-based, human; conditions: for x-ray induced translocation of P-selectin: HUVEC pretreated 45 min, staining 60 minutes after x-irradiation (2 Gy); for 8-fold increase in P-selectin immunofluorescence on the cell surface: x-irradiated (2 Gy) HUVEC, confocal microscopy quantified by NIH Image, FIG. 2

CC1(C)[C@@H](O)CC[C@]2(C)[C@H]3C(=O)C=C4[C@@H]5C[C@@](C)(C(=O)O)CC[C@]5(C)CC[C@@]4(C)[C@]3(C)CC[C@@H]12 [18-β-glycyrrhetinic acid]
IC50 (selectin; Narasinga-Rao et al. (1994), read-out: IC50 blocking selectin activity): > 2000 µM

CCCC[C@@H](C=O)NC(=O)[C@H](CC(C)C)NC(=O)[C@H](CC(C)C)NC(C)=O [ALLN] (Ac-Leu-Leu-[Nle]-aldehyde)
x-ray induction of ICAM-1 (ICAM-1 [1]): attenuated

O=C(O)CN(CC(=O)O)c1ccccc1OCCOc1ccccc1N(CC(=O)O)CC(=O)O [BAPTA]
P-selectin translocation to the cell membrane (Weibel-Palade exocytosis) (P-selectin [2]): attenuation
x-ray induction of ICAM-1 (ICAM-1 [1]): no effect
superoxide induced von Willebrand Factor exocytosis (von Willebrand Factor): inhibited

CC1(C)[C@@H](O[C@H]2O[C@H](C(=O)O)[C@@H](O)[C@H](O)[C@H]2O[C@@H]2O[C@H](C(=O)O)[C@@H](O)[C@H](O)[C@H]2O)CC[C@]2(C)[C@H]3C(=O)C=C4[C@@H]5C[C@@](C)(C(=O)O)CC[C@]5(C)CC[C@@]4(C)[C@]3(C)CC[C@@H]12 [Glycyrrhizin]
adherence of HL60 cells to irradiated HUVECs (HL60 cells): blocked
block selectin binding to sLe^x (selectin; Narasinga Rao et al. (1994)): block
block selectin binding to sLe^x (selectin; Narasinga Rao et al. (1994), listed as glycyrrhizin): blocked
absorption from the gut [3]: poorly absorbed

CC1OC(OC2CCC3(C)C(CCC4(C)C3C(=O)C=C3C5CC(C)(C(=O)O)CCC5(C)CCC34C)C2(C)C)C(O)C(O)C1O [L-fucose derivative]
selectin inhibition activity in vitro (selectin; sugars substituted for the glucuronic acids of glycyrrhizin, Narasinga Rao et al. (1994)): most active
in vivo efficacy (anti-inflammatory activity) [4]: most active

CC(C)C[C@H](NP(=O)(O)O[C@@H]1O[C@@H](C)[C@H](O)[C@@H](O)[C@H]1O)C(=O)N[C@@H](Cc1c[nH]c2ccccc12)C(=O)[O-].CC(C)C[C@H](NP(=O)(O)O[C@@H]1O[C@@H](C)[C@H](O)[C@@H](O)[C@H]1O)C(=O)N[C@@H](Cc1c[nH]c2ccccc12)C(=O)[O-].[Na+].[Na+] [N-(α-Rhamnopyranosyloxy hydroxyphosphonyl)- Leu-Trp]
block selectin binding to sLe^x (selectin; Narasinga Rao et al. (1994)): effective

Cc1c2oc3c(C)ccc(C(=O)N[C@@H]4C(=O)N[C@H](C(C)C)C(=O)N5CCC[C@H]5C(=O)N(C)CC(=O)N(C)[C@@H](C(C)C)C(=O)O[C@@H]4C)c3nc-2c(C(=O)N[C@@H]2C(=O)N[C@H](C(C)C)C(=O)N3CCC[C@H]3C(=O)N(C)CC(=O)N(C)[C@@H](C(C)C)C(=O)O[C@@H]2C)c(N)c1=O [actinomycin D] (I: T[dV]P[Sar][NMeV] / II: T[dV]P[Sar][NMeV]; ester I:1-I:C, II:1-II:C; linker I:N-II:N via Actinocin(9to1))
radiation-mediated increase in E-selectin mRNA expression (E-selectin [5]): blocked
radiation-mediated increase in ICAM-1 mRNA expression (ICAM-1 [6]): blocked

COC(=O)CCCCCCCCO[C@@H]1O[C@H](CO)[C@@H](O[C@@H]2O[C@@H](C)[C@@H](O)[C@@H](O)[C@@H]2O)[C@H](O[C@@H]2O[C@H](CO)[C@H](O)[C@H](O[C@]3(C(=O)O)C[C@H](O)[C@@H](NC(C)=O)[C@H]([C@H](O)[C@H](O)CO)O3)[C@H]2O)[C@H]1N [amino substituted sLe^a]
IC50 (E-selectin [7]): 21 ± 3 µM
more active than the reducing tetrasaccharide sLe^x (E-selectin [7]): 36 fold

Cc1c(C(=O)O)c(O)cc2c1C(=O)c1c(O)c([C@H]3O[C@H](CO)[C@@H](O)[C@H](O)[C@H]3O)c(O)c(O)c1C2=O [carmine]
block selectin binding to sLe^x (selectin; Narasinga Rao et al. (1994)): effective

Cc1c(C(=O)O)c(O)cc2c1C(=O)c1c(O)c([C@@H]3O[C@H](CO)[C@@H](O)[C@H](O)[C@H]3O)c(O)c(O)c1C2=O [carminic acid]
adherence of HL60 cells to irradiated HUVECs (HL60 cells): blocked
block selectin binding to sLe^x (selectin; Narasinga Rao et al. (1994)): blocked selectin binding at concentrations comparable to those of glycyrrhizin

COc1cc2c(c(OC)c1OC)-c1ccc(OC)c(=O)cc1[C@@H](NC(C)=O)CC2 [colchicine]
vWF secretion from thrombin-treated endothelial cells (vWF): attenuates

C=C1[C@@H](C)[C@H]2[C@H](Cc3ccccc3)NC(=O)[C@]23OC(=O)/C=C/[C@H](O)CCC[C@@H](C)C/C=C/[C@H]3[C@@H]1O [cytochalasin-B]
x-ray induced translocation of P-selectin (P-selectin [8]): no inhibition
8-fold increase in P-selectin immunofluorescence on the cell surface (P-selectin [8]): not

CC1(C)[C@@H](O[C@H]2O[C@H](C(=O)O)[C@@H](O)[C@H](O)[C@H]2O[C@@H]2O[C@H](C(=O)O)[C@@H](O)[C@H](O)[C@H]2O)CC[C@]2(C)[C@H]3C(=O)C=C4[C@@H]5C[C@@](C)(C(=O)O)CC[C@]5(C)CC[C@@]4(C)[C@]3(C)CC[C@@H]12 [glycyrrhizic acid (NH^+4), glycyrrhizic acid]
block selectin binding to sLe^x (selectin; Narasinga Rao et al. (1994)): blocked

CO[C@H]1[C@@H](OC)C[C@H](C)[C@@H](OC)C2=CC(=O)C=C(NC(=O)/C(C)=C/C=C\[C@H](OC)[C@@H](OC(N)=O)/C(C)=C/[C@@H]1C)C2=O [herbimycin A]
P-selectin translocation to the cell membrane (Weibel-Palade exocytosis) (P-selectin [2]): no effect
x-ray induction of ICAM-1 (ICAM-1 [1]): attenuated

C[C@H]1O[C@H](OC2[C@@H](O)[C@@H](O)C(O)[C@H](O)[C@H]2O)[C@@H](N)C[C@@H]1N=C(N)C(=O)O.Cl (some centres unmarked) [kasugamycin hydrochloride]
block selectin binding to sLe^x (selectin; Narasinga Rao et al. (1994)): effective

C[C@H]1O[C@H](O[C@H]2[C@H](O)[C@@H](O)[C@@H](O)[C@H](O)[C@@H]2O)[C@@H](N)C[C@@H]1NC(=N)C(=O)O [kasugamycin]
block selectin binding to sLe^x (selectin; Narasinga Rao et al. (1994)): effective

CC(=O)Nc1c(I)c(NC(C)=O)c(I)c(C(=O)O)c1I.CNC[C@H](O)[C@@H](O)[C@H](O)[C@H](O)CO [meglumine diatrizoate]
block selectin binding to sLe^x (selectin; Narasinga Rao et al. (1994)): effective

CC(=O)Nc1c(I)c(C(=O)O)c(I)c(N(C)C(C)=O)c1I [metrizoic acid (meglumine salt), metrizoic acid]
block selectin binding to sLe^x (selectin; Narasinga Rao et al. (1994)): effective

COC(=O)Nc1nc2cc(C(=O)c3cccs3)ccc2[nH]1 [nocodozol]
x-ray induced translocation of P-selectin (P-selectin [8]): inhibited
8-fold increase in P-selectin immunofluorescence on the cell surface (P-selectin [8]): abrogated

O=C(O)c1cc(O)c2c(c1)C(=O)c1cccc(O[C@@H]3O[C@H](CO)[C@@H](O)[C@H](O)[C@H]3O)c1C2=O [rhein-8-glucoside]
block selectin binding to sLe^x (selectin; Narasinga Rao et al. (1994)): effective

O=C(O)[C@H]1O[C@H](O[C@@H]2[C@H](O)[C@@H](O)[C@@H](O[C@@H]3[C@H](O)[C@@H](O)C(O)O[C@@H]3C(=O)O)O[C@@H]2C(=O)O)[C@H](O)[C@@H](O)[C@H]1O (some centres unmarked) [trigalacturonic acid]
block selectin binding to sLe^x (selectin; Narasinga Rao et al. (1994)): effective

C[C@@H]1O[C@@H](O[C@H]2[C@H](O[C@H]3CC[C@@]4(C)[C@@H](CC[C@]5(C)[C@@H]4CC=C4[C@@H]6CC(C)(C)CC[C@]6(C(=O)O)CC[C@]45C)[C@]3(C)CO)OC[C@H](O)[C@@H]2O)[C@H](O)[C@H](O)[C@H]1O [α-Hederin]
inhibiting concentrations (selectin; selectin binding to sLe^x, Narasinga Rao et al. (1994)): 2 to 3 mM

Neu5Acα2-3Galβ1-4 [Fucα1-3]GlcNAc [sialyl Lewis X]
adherence of HL60 cells to irradiated HUVECs (HL60 cells): blocked

[ring-^14C]Chlorhexidine
block selectin binding to sLe^x (selectin; Narasinga Rao et al. (1994)): effective

calphostin
P-selectin translocation to the cell membrane (Weibel-Palade exocytosis) (P-selectin [2]): attenuation; also recorded: attenuates
x-ray induction of ICAM-1 (ICAM-1 [1]): no effect

carmine ammonia
block selectin binding to sLe^x (selectin; Narasinga Rao et al. (1994)): effective

escin
block selectin binding to sLe^x (selectin; Narasinga Rao et al. (1994)): effective

picrocarmine
block selectin binding to sLe^x (selectin; Narasinga Rao et al. (1994)): effective
